Experimental data from ChEMBL document CHEMBL1201862, “PubChem BioAssay data set” (2004).
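Five concentrations, 48 hours, 96-well plates. GI50 is the concentration that inhibits growth by half.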 The source made the active and inactive calls. Rule as the data show it: active = GI50 up to about 1.1 µM and inactive = higher.

Key:
Assay in all cases: NCI anticancer screen, dose series, 48 h
OVCAR-5 = tested on: OVCAR-5
MDA-MB-231 = tested on: MDA-MB-231
T47D = tested on: T47D
LOX IMVI = tested on: LOX IMVI
MOLT-4 = tested on: MOLT-4
SNB-19 = tested on: SNB-19
NCI/ADR-RES = tested on: NCI/ADR-RES
MDA-N = tested on: MDA-N
SK-OV-3 = tested on: SK-OV-3
SR = tested on: SR
Malme-3M = tested on: Malme-3M
RXF 393 = tested on: RXF 393
U-251 = tested on: U-251
ACHN = tested on: ACHN
HCT-116 = tested on: HCT-116
OVCAR-4 = tested on: OVCAR-4
NCI-H460 = tested on: NCI-H460
IGROV-1 = tested on: IGROV-1
A549 = tested on: A549
TK-10 = tested on: TK-10

SMILES	GI50 (OVCAR-5)	GI50 (MDA-MB-231)	GI50 (T47D)	GI50 (LOX IMVI)	GI50 (MOLT-4)	GI50 (SNB-19)	GI50 (NCI/ADR-RES)	GI50 (MDA-N)	GI50 (SK-OV-3)	GI50 (SR)	GI50 (Malme-3M)	GI50 (RXF 393)	GI50 (U-251)	GI50 (ACHN)	GI50 (HCT-116)	GI50 (OVCAR-4)	GI50 (NCI-H460)	GI50 (IGROV-1)	GI50 (A549)	GI50 (TK-10)
Cc1cc2c(nn1)CCc1c-2no[n+]1[O-]	> 100 µM (inactive)	> 100 µM (inactive)	> 100 µM (inactive)	> 100 µM (inactive)	> 100 µM (inactive)	> 100 µM (inactive)	> 100 µM (inactive)	> 100 µM (inactive)	> 100 µM (inactive)	> 100 µM (inactive)	> 100 µM (inactive)	22.1 µM (inactive)	> 100 µM (inactive)	> 100 µM (inactive)	> 100 µM (inactive)	> 100 µM (inactive)	> 100 µM (inactive)	> 100 µM (inactive)	> 100 µM (inactive)	> 100 µM (inactive)
COC1=C2CC(C)CC(OC)C(OC(=O)CN)[C@H](C)/C=C(\C)C(OC(N)=O)C(OC)/C=C\C=C(/C)C(=O)NC(=CC1=O)C2=O (stereo partly specified)	1.03 µM (active)	0.42 µM (active)	0.281 µM (active)	0.284 µM (active)	0.344 µM (active)	6.55 µM (inactive)	9.62 µM (inactive)	0.443 µM (active)	3.32 µM (inactive)	0.321 µM (active)	0.351 µM (active)	0.507 µM (active)	1.58 µM (inactive)	0.446 µM (active)	0.498 µM (active)	0.708 µM (active)	6.14 µM (inactive)	0.453 µM (active)	9.73 µM (inactive)	0.519 µM (active)
CC(=O)/N=C1\N/C(=C\c2ccc(Cl)cc2)C(=O)N1/C=C1\C(=O)Oc2ccccc2C1=O	> 100 µM (inactive)	> 100 µM (inactive)	> 100 µM (inactive)	> 100 µM (inactive)	> 100 µM (inactive)	> 100 µM (inactive)	> 100 µM (inactive)	> 100 µM (inactive)	> 100 µM (inactive)	52.2 µM (inactive)	> 100 µM (inactive)	> 100 µM (inactive)	61.1 µM (inactive)	> 100 µM (inactive)	> 100 µM (inactive)	> 100 µM (inactive)	> 100 µM (inactive)	> 100 µM (inactive)	> 100 µM (inactive)	–
O=C1N/C(=N\N=C\c2ccccc2)C(c2ccccc2)O1 (stereo unspecified)	> 100 µM (inactive)	88.5 µM (inactive)	79.8 µM (inactive)	42.8 µM (inactive)	25.5 µM (inactive)	> 100 µM (inactive)	33.3 µM (inactive)	> 100 µM (inactive)	> 100 µM (inactive)	23.6 µM (inactive)	> 100 µM (inactive)	80 µM (inactive)	58.9 µM (inactive)	53.5 µM (inactive)	37.3 µM (inactive)	38.5 µM (inactive)	38.4 µM (inactive)	> 100 µM (inactive)	45.3 µM (inactive)	24 µM (inactive)
COc1cc(C2c3cc4c(cc3OC(NNC(N)=O)C2C)OCO4)cc(OC)c1O (stereo unspecified)	6.59 µM (inactive)	5.05 µM (inactive)	> 100 µM (inactive)	4.06 µM (inactive)	2.58 µM (inactive)	7.29 µM (inactive)	21.3 µM (inactive)	0.274 µM (active)	3.11 µM (inactive)	1.12 µM (active)	0.615 µM (active)	0.598 µM (active)	2.1 µM (inactive)	5.93 µM (inactive)	1.58 µM (inactive)	> 43.9 µM (inactive)	2.12 µM (inactive)	1.62 µM (inactive)	3.45 µM (inactive)	13.8 µM (inactive)
COc1ccc(C2C3=C(Nc4ncnn42)c2ccccc2OC3c2ccccc2)cc1 (stereo unspecified)	89.1 µM (inactive)	49.1 µM (inactive)	13.7 µM (inactive)	61.8 µM (inactive)	6.27 µM (inactive)	> 100 µM (inactive)	47.8 µM (inactive)	11 µM (inactive)	37.5 µM (inactive)	8.47 µM (inactive)	–	1.14 µM (inactive)	42.3 µM (inactive)	18.5 µM (inactive)	18.9 µM (inactive)	–	27.2 µM (inactive)	27.1 µM (inactive)	14.9 µM (inactive)	–
O=C(/C=C/c1ccc2c(c1)OCO2)CC(=O)C(=O)c1c[nH]c2ccccc12	77.4 µM (inactive)	39.4 µM (inactive)	29.4 µM (inactive)	40.2 µM (inactive)	20.7 µM (inactive)	46.2 µM (inactive)	> 100 µM (inactive)	27.9 µM (inactive)	35.2 µM (inactive)	31.6 µM (inactive)	> 100 µM (inactive)	31.6 µM (inactive)	30.8 µM (inactive)	44.2 µM (inactive)	31.8 µM (inactive)	–	33.7 µM (inactive)	47.8 µM (inactive)	35.3 µM (inactive)	38.4 µM (inactive)
Nc1nc(N)nc(-c2cnc3ccccc3c2)n1	39.5 µM (inactive)	86.7 µM (inactive)	> 100 µM (inactive)	> 100 µM (inactive)	20.7 µM (inactive)	> 100 µM (inactive)	> 100 µM (inactive)	> 100 µM (inactive)	87.9 µM (inactive)	37 µM (inactive)	> 100 µM (inactive)	94.2 µM (inactive)	> 100 µM (inactive)	> 100 µM (inactive)	> 100 µM (inactive)	–	> 100 µM (inactive)	58.6 µM (inactive)	> 100 µM (inactive)	88.9 µM (inactive)
O=c1c(C(c2ccccc2)c2c(O)oc3cc(O)ccc3c2=O)c(O)oc2cc(O)ccc12	> 100 µM (inactive)	> 100 µM (inactive)	> 100 µM (inactive)	> 100 µM (inactive)	> 100 µM (inactive)	–	> 100 µM (inactive)	> 100 µM (inactive)	> 100 µM (inactive)	> 100 µM (inactive)	> 100 µM (inactive)	> 100 µM (inactive)	> 100 µM (inactive)	–	> 100 µM (inactive)	> 100 µM (inactive)	> 100 µM (inactive)	> 100 µM (inactive)	> 100 µM (inactive)	> 100 µM (inactive)
OC(c1ccc(-c2ccccc2)cc1)(c1ccc(-c2ccccc2)cc1)c1ccc(-c2ccccc2)cc1	> 100 µM (inactive)	53.7 µM (inactive)	> 100 µM (inactive)	> 100 µM (inactive)	28.6 µM (inactive)	> 100 µM (inactive)	> 100 µM (inactive)	> 100 µM (inactive)	> 100 µM (inactive)	> 100 µM (inactive)	–	> 100 µM (inactive)	> 100 µM (inactive)	> 100 µM (inactive)	> 100 µM (inactive)	> 100 µM (inactive)	> 100 µM (inactive)	> 100 µM (inactive)	> 100 µM (inactive)	> 100 µM (inactive)
